Measurements reported in PMC12677653, “Inhibition of Tumor Lipogenesis and Growth by Peptide‐Based Targeting of SREBP Activation” (Advanced Science, 2025).

Key:
tumor cell apoptosis = assay: TUNEL assay of tumor tissues; format: in vivo, BALB/c athymic nude mice; settings: cryosections of Huh7 tumors, n = 4; peptide given as LNP 10 mg/kg iv; lenvatinib mesylate 2 mg/kg oral
Procedure: (§1) Representative micrographs are shown (scale bar: 20 µm). b,c) Cryosections of mouse tumor tissues were prepared for histological analysis. (b) Lipid accumulation was assessed by Oil Red O staining. Representative micrographs are shown (scale bar: 20 µm). (c) Apoptotic cells were detected by TUNEL assay. Representative micrographs are shown (scale bar: 20 µm). d,e) Quantitative analysis of (d) apoptotic areas (TUNEL‐positive regions) and (e) lipid droplet counts (Oil Red O‐positive particles) was performed. Data represent the mean ± SD (n = 4). Statistical significance was determined by one‐way analysis of variance (ANOVA). ** p < 0.01, **** p < 0.0001, ns, no significance.
Mouse tumor tissues were sectioned at 5 µm thickness. Apoptotic cells were counted using the colorimetric TUNEL System (Beyotime, C1091) according to the manufacturer's instructions. The total numbers of apoptotic cells were counted in six high‐power fields and presented as an average number of apoptotic cells per high‐power fields.

[1] = test system: HCT116 human colon cancer cells; assay: Cell proliferation / cell death, HCT116; format: cell-based; settings: concentration gradient of peptide, OD measurement (Figure S1i)
Procedure: Cells were seeded in 96‐well plates at a density of 5000 cells per well in 100 µL complete growth medium. Following a 24‐hour incubation period (37 °C, 5% CO2) to permit cell adherence, the culture medium was replaced with fresh low serum contained complete medium containing either Insig1/2 loop1 peptide (0–100 µM concentration range) or PBS. Cells were maintained under these conditions for 72 hours. After treatment, the culture medium was carefully aspirated, and cells were washed twice with 200 µL phosphate‐buffered saline (PBS, pH 7.4). Fixed was performed using 4% paraformaldehyde (100 µL/well) for 15 min at room temperature, followed by three PBS washes (200 µL/well) to remove residual fixative. 0.1% (w/v) crystal violet staining solution was prepared by dissolving crystal violet powder in 10% ethanol, followed by filtration through a 0.22 µm membrane. Each well received 80 µL of staining solution and was incubated for 15 min at room temperature, protected from light. […] Plates were agitated at 200 rpm for 10 min to ensure complete dissolution before measuring absorbance at 582 nm using a microplate reader. […]
i-k) (i) HCT116, (j) Huh7, and (k) Hep3B cells were exposed to a concentration gradient of Insig1/2 loop1 peptide, and cell proliferation was quantified by optical density (OD) measurements.

Huh7 cells = assay: Cell proliferation, Huh7; format: cell-based, human; settings: peptide 25 µM 1 h, IGF1 100 ng/mL 72 h, automated cell counting, n = 3
[2] = target: T1, binding of PCK1 to Insig1 (Homo sapiens, UniProt P35558); assay: Immunoprecipitation of IGF1-induced PCK1-Insig1 binding, Hep3B; format: cell-based; design: expressed in transfected cells; settings: Flag-PCK1-expressing Hep3B cells, peptide 15 μM 1 h before IGF1 100 ng/mL
T1 sequence (P35558 1-622): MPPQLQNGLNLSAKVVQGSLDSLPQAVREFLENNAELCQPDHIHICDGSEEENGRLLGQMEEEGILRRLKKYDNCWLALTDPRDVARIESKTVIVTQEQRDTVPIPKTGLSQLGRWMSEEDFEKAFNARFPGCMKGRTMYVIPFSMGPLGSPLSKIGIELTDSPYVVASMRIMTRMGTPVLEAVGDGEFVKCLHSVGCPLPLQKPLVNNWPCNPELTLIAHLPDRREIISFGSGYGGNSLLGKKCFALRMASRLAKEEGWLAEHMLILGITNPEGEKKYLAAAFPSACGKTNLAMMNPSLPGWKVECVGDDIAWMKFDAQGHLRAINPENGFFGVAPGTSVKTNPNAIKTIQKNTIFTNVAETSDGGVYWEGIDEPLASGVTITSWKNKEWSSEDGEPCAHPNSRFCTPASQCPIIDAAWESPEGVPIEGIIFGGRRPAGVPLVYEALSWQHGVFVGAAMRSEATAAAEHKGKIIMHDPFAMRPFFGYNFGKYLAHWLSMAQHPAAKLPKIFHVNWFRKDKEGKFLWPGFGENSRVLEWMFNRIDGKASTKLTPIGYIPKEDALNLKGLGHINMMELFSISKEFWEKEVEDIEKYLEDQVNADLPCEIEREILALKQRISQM
Procedure: Cellular proteins were extracted using ice‐cold lysis buffer [50 mM Tris‐HCl (pH 7.5), 150 mM NaCl, 0.1% SDS, 1% Triton X‐100, 1 mM DTT, 0.5 mM EDTA] supplemented with protease inhibitor cocktail (Roche) and phosphatase inhibitors (Bimake). Following lysis, cell extracts were centrifuged at 13400 × g for 15 min at 4 °C to remove cellular debris. The clarified supernatants were then incubated with primary antibodies overnight at 4 °C with gentle rotation. For Flag‐tagged protein immunoprecipitation, Flag M2 magnetic beads (Sigma) were added to the lysate‐antibody mixture and incubated for an additional 4 h at 4 °C. The immunocomplexes were washed three times with lysis buffer under stringent conditions (5 min per wash with rotation). Finally, the precipitated proteins were eluted and analyzed by immunoblotting as previously described.^[ [35] ^]
d) Flag-PCK1-expressing Hep3B cells were pre-treated with Insig1/2 loop 1 peptide (15 μM) for 1 h before IGF1 (100 ng ml⁻¹) stimulation.

[3] = test system: Insig1 pS207/Insig2 pS151, SREBP1, Ki67; assay: IHC analysis of mouse tumors derived from Huh7 cells; format: in vivo, BALB/c athymic nude mice; settings: peptide given as LNP@Insig1/2 loop 1 peptide 10 mg/kg iv, lenvatinib mesylate 2 mg/kg oral
Procedure: as §1
As described previously,^[ [39] ^] IHC staining was performed using the Vectastain ABC kit (Vector Laboratories) according to the manufacturer's instructions. Sections of paraffin‐embedded xenograft tumors were stained with antibodies against Ki67, SREBP1, Insig1 pS207/Insig2 pS151, and nonspecific IgG was used as a negative control. Paraffin‐embedded human liver tumor sections were stained with antibodies against Ki67, SREBP1, Insig1 pS207/Insig2 pS151, with nonspecific IgG as a negative control. The tissue sections were quantitatively scored according to the percentage of positive cells and staining intensity. […] The intensity of staining was rated on a scale of 0 to 3: 0, negative; 1, weak; 2, moderate; and 3, strong. The study then combined the proportion and intensity scores to obtain a total score (range, 0–8).

## RKKRRQRRRLYPCIDSHLGEPHKFKRE [Insig1/2 loop 1 peptide]
Tumor cell apoptosis
  cell apoptosis in tumor tissues (TUNEL): induced cell apoptosis in tumor tissues
[1]
  cell death: induced cell death
Huh7 cells
  IGF1-induced increase in proliferation: inhibited
[2]
  IGF1-induced binding of PCK1 to Insig1: markedly inhibited
[3]
  Insig1 S207/Insig2 S151 phosphorylation in tumors: reduced
  Ki67 expression in tumors: reduced
  SREBP1 expression and nuclear accumulation in tumors: reduced
